Test results reported in patent publication US8609723B2 (Beijing Dingguochangsheng Biotech., Co., Ltd., priority 2008, dated 2013).

Legend:
[1] = system: male ICR mice; experiment: Forced swimming test of mice; format: in vivo; conditions: 18.4 mg/kg single administration, vs control group
Procedure: The mice were forced to swim on Days 3, 7 and 14 after administration, except that such experiment was not performed for the curcumin group on Day 14.
Twenty four hours before the formal test, the mice were placed into a round glass container (height: 25 cm, diameter: 10 cm) filled with water (depth: 10 cm) with a temperature of 24±1° C., and forced to conduct swim training for 15 min. Twenty four hours later, the mice were placed into the round glass container filled with water (depth: 10 cm) again and forced to swim for 6 min. The accumulative immobile time within the last 4 min was observed and recorded for each mouse. The immobile time is intended to mean the period within which the mouse stops to struggle, floats in the water and keeps immobile, or only makes a few slight movements that are necessary to keep its head floating on the surface of water.

[2] = system: 5-HT, NA, DA and metabolites thereof in hippocampus; experiment: Detection of monoamine and metabolites thereof in brains of mice; format: in vivo; conditions: 18.4 mg/kg
Procedure: Hippocampus was collected immediately on ice, weighed, put into an Eppendorf tube and kept in refrigeratory at −80° C. To each 100 mg brain tissue, 200 μl ice-cooled Solution A (0.4 mol/L HCLO4) was added. The mixture was homogenized ultrasonically in a ice bath, kept in dark at 4° C. for 60 min, and centrifuged for 20 min (12,000 rpm, 4° C.). […] The mixture was vortexed thoroughly for 10 min, kept at 4° C. in dark for 60 min, and centrifuged again for 20 min (12,000 rpm, 4° C.). The supernatant was collected and measured for the content of monoamine. The contents of 5-HT, NA, DA, 5-HIAA and DOPAC in brain tissue were determined by High Effective Liquid Phase Electrochemistry. […] The contents of monoamine and metabolites thereof in brain tissue were shown as ng/g wet tissue weight.

[3] = system: chronically stressed rats; experiment: Sugar water test of rats (chronic stress model); format: in vivo; conditions: table title says (%)
Source text: The rats in the normal control group were raised normally under a condition without any stimulation except for weighing body weight, measuring body temperature, and subjected to sugar test. All of other groups were subjected to stimulations of same type and same strength. During the experiment, different types of stimulations were applied in an unpredictable manner, and the same type of stimulation was enhanced each time.
The chronic stress course was 20 days in total, once per day, from 9:00 AM to 2:00 PM. The stress protocol was shown as follows: horizontally shaking at a high speed for 45 min; nipping tails (1 cm from the tail root): 1 min; depriving of water for 24 h; forbidding moving for 1.5 h; fasting for 24 h; stimulating with ice water (water temperature: 10° C.) for 5 min; electric shocking (1 mA, time course: is, 1 shock/min) the bottoms of feet for 30 min; changing cages and raising separately for 24 h; forbidding moving for 2 h; nipping tails (1 cm from the root of tail) for 1 min; depriving of water for 24 h; horizontally shaking at a high speed for 1.5 h; fasting for 24 h; nipping tails (1 cm from the tail root): 1 min; electric shocking (1 mA, time course: 1 s, 1 shock/min) the bottoms of feet for 40 min; stimulating with ice water for 5 min; changing cages and raising separately for 24 h; horizontally shaking at a high speed for 60 min; electric shocking (1 mA, time course: 1 s, 1 shock/min) the bottoms of feet for 50 min; depriving of water for 24 h; forbidding moving for 2.5 h; and 24 h social isolation.
Before this experiment, animals were trained to adapt to drink sugar water in a to quite room. Two bottles were placed simultaneously into each cage. For the first 24 h, these two bottles were both filled with 1% sugar water; and for the next 24 h, one of them was filled with 1% sugar water and the other was filled with pure water. Then after 23-hour water deprivation, the animals were tested for basic sugar water/pure water consumption. One bottle of 1% sugar water and one bottle of pure water were provided to each rat simultaneously. One hour later, the two bottles were weighed, and the total liquid consumption, sugar water consumption, pure water consumption, and the sugar water preference=sugar water consumption/total liquid consumption×100% were calculated, respectively. The experiment was performed after continuous administration of curcumin for 14 days.

[4] = system: S-180 sarcoma cells; experiment: Antitumor experiment of tumor S-180-bearing mice; format: in vivo; conditions: 7-day dosage by single administration, 7 days
Source text: During the experiment, the mice were inoculated with S-180 sarcoma cells (×10^7) in armpits. […] Seven days later, the mice were sacrificed by decollation. The tumors were removed, and the mice and the tumors were weighed separately.

[5] = system: S-180 sarcoma cells; experiment: Survival experiment of tumor-bearing mice; format: in vivo; conditions: S-180-bearing mice, 7-day dosage by single administration; 95% confidence interval 12.8~20.2 days
Procedure: During the experiment, the mice were inoculated with S-180 sarcoma cells (×10^5) in armpits, and the next day the administration begins. The survival rate was recorded for each group.

[6] = system: Bladder cancer cell; experiment: Inhibitory effect on tumor cells, MTT method; format: cell-based; conditions: 25 μM, 72 h
Procedure: (§1) The tumor cells with a stable passage feature, including Hela tumor cells, renal cancer cells, breast cancer cells, gastric cancer cells, rectal cancer cells, pulmonary cancer cells, hepatic cancer cells HepG2, prostate cancer cells, esophageal cancer cells, sarcoma cells, glioma cells, melanoma cells, lymphoma cells, and bladder cancer cells, were counted under a microscope (×10^4), and cultured in a 96-well plate under CO2 saturated water vapor for 24 h.

[7] = system: Esophageal cancer cell; experiment: Inhibitory effect on tumor cells, MTT method; format: cell-based; conditions: 25 μM, 72 h
Procedure: as §1

[8] = system: Glioma cell; experiment: Inhibitory effect on tumor cells, MTT method; format: cell-based; conditions: 25 μM, 72 h
Procedure: as §1

[9] = system: Hepatic cancer cell HepG2; experiment: Inhibitory effect on tumor cells, MTT method; format: cell-based; conditions: Hepatic cancer cell HepG2, 25 μM, 72 h
Procedure: as §1

[10] = system: Lymphoma cell; experiment: Inhibitory effect on tumor cells, MTT method; format: cell-based; conditions: 25 μM, 72 h
Procedure: as §1

[11] = system: Melanoma cell; experiment: Inhibitory effect on tumor cells, MTT method; format: cell-based; conditions: 25 μM, 72 h
Procedure: as §1

[12] = system: Pulmonary cancer cell A549; experiment: Inhibitory effect on tumor cells, MTT method; format: cell-based; conditions: Pulmonary cancer cell A549, 25 μM, 72 h
Procedure: as §1

[13] = system: Renal cancer cell 7860; experiment: Inhibitory effect on tumor cells, MTT method; format: cell-based; conditions: Renal cancer cell 7860, 25 μM, 72 h
Procedure: as §1

[14] = system: Sarcoma cell; experiment: Inhibitory effect on tumor cells, MTT method; format: cell-based; conditions: 25 μM, 72 h
Procedure: as §1

[15] = first line of group (Day 3 presumed)
[16] = second line of group (Day 7 presumed)
[17] = 4.6 mg/kg, the values are: sugar water preference

Substance: curcumin decanoate [long acting curcumin]
- reduced the accumulative immobile time (forced swimming, mice) ([1]; 3 days after administration): 62.1%
- reduced the accumulative immobile time (forced swimming, mice) ([1]; 7 days after administration): 74.7%
- reduced the accumulative immobile time (forced swimming, mice) ([1]; 14 days after administration): 37.8%
- Hippocampus 5-HIAA [2, 15]: 183.4 ± 14.2 ng/g
- Hippocampus 5-HIAA/5-HT [2, 15]: 0.25 ± 0.02
- Hippocampus 5-HT [2, 15]: 713.1 ± 19.2 ng/g
- Hippocampus DOPAC [2, 15]: 13.1 ± 2.0 ng/g
- Hippocampus Dopamine [2, 15]: 20.3 ± 5.9 ng/g
- Hippocampus Noradrenaline [2, 15]: 369.9 ± 12.3 ng/g
- Hippocampus 5-HIAA [2, 16]: 186.3 ± 8.4 ng/g
- Hippocampus 5-HIAA/5-HT [2, 16]: 0.25 ± 0.03
- Hippocampus 5-HT [2, 16]: 725.0 ± 30.4 ng/g
- Hippocampus DOPAC [2, 16]: 14.6 ± 2.1 ng/g
- Hippocampus Dopamine [2, 16]: 21.2 ± 5.6 ng/g
- Hippocampus Noradrenaline [2, 16]: 372.2 ± 21.6 ng/g
- Sugar water volume after stress [3, 17]: 54.1 ± 4.7%
- Sugar water volume before stress [3, 17]: 60.2 ± 9.2%
- Sugar water volume after stress ([3]; 9.2 mg/kg): 72.8 ± 3.1 %
- Sugar water volume before stress ([3]; 9.2 mg/kg, the values are: sugar water preference): 60.4 ± 9.2%
- Sugar water volume after stress ([3]; 18.4 mg/kg): 71.6 ± 2.3 %
- Sugar water volume before stress ([3]; 18.4 mg/kg, the values are: sugar water preference): 66.8 ± 8.6%
- inhibitory rate of tumors ([4]; high dosage group): 50.1%
- inhibitory rate of tumors ([4]; low dosage group): 28.5%
- inhibitory rate of tumors ([4]; medium dosage group): 57.8%
- medium survival time [5]: 17.5 days
- Inhibitory rate (%) [6]: 55.2 ± 1.0%
- Inhibitory rate (%) [7]: 35.5 ± 1.1%
- Inhibitory rate (%) [8]: 58.8 ± 1.5%
- Inhibitory rate (%) [9]: 43.7 ± 1.4%
- Inhibitory rate (%) [10]: 55.8 ± 1.7%
- Inhibitory rate (%) [11]: 49.9 ± 2.0. %
- Inhibitory rate (%) [12]: 35.9 ± 1.2%
- Inhibitory rate (%) [13]: 60.6%
- Inhibitory rate (%) [14]: 45.5 ± 1.6%
